US12492163B2, “9H-fluorene derivatives or their pharmaceutically acceptable salts” (priority 2020, dated 2025)

Columns and labels:
[1] = molecular target: horse plasma butyrylcholinesterase (eqBuChE) (Equus caballus (Horse), UniProt P81908); test: Ellman's test, inhibition of horse plasma butyrylcholinesterase; assay type: biochemical
Description: (§1) The spectrophotometric Ellman's test [Ellman et al.] modified for assays in 96-well plates was used to test the activity. Reagents: 5,5′-dithiobis-(2-nitrobenzoic acid) (DTNB), eqBuChE and butyrylthiocholine iodide (BTC) were purchased from Sigma-Aldrich (Steinheim, Germany). hBuChE was from Vivonics (Bedford, MA, USA). The enzymes were prepared by dissolving in demineralized water to a concentration of 0.384 U/ml. Stock solutions of test compounds were prepared by dissolving in DMSO to a concentration of 0.0034 M. They were then diluted with water to obtain the appropriate concentrations in the wells. In the first step of the test, 25 μl of test compound (or DMSO/water mixture at the appropriate ratio for blank samples) was incubated in 0.1 M phosphate buffer (200 μl, pH=8.0) with DTNB (20 μl; 0.0025M) and with the appropriate enzyme (20 μl; eqBuChE or hBuChE) at 25° C. (animal enzyme) or 36° C. (human enzyme). After a 5 minutes incubation period, 20 μl of BTC solution (0.00375 M) was added. After another 5 minutes, the changes in absorbance of the solutions were measured at 412 nm using a multifunctional microplate reader (EnSpire Multimode; PerkinElmer; Waltham, MA, USA). All compounds were tested at a screening concentration of 10 μM (eqBuChE) or 1 μM (hBuChE). The percentage of enzyme inhibition was calculated from the equation 100-(S/B)×100, where S and B were the enzymatic activity in the test sample well and in the well without sample, respectively. […] All reactions were performed in triplicate. IC50 values were calculated using non-linear regression (GraphPad Prism 5 [GraphPad Software, San Diego, CA, USA 5.00]) for the percentage of enzyme inhibition against the inhibitor concentration used. Tacrine and donepezil were used as reference compounds.

[2] = molecular target: human plasma butyrylcholinesterase (hBuChE) (Homo sapiens (Human), UniProt P06276); test: Ellman's test, inhibition of human plasma butyrylcholinesterase; assay type: biochemical
Sequence of human plasma butyrylcholinesterase (hBuChE) (P06276 29-602): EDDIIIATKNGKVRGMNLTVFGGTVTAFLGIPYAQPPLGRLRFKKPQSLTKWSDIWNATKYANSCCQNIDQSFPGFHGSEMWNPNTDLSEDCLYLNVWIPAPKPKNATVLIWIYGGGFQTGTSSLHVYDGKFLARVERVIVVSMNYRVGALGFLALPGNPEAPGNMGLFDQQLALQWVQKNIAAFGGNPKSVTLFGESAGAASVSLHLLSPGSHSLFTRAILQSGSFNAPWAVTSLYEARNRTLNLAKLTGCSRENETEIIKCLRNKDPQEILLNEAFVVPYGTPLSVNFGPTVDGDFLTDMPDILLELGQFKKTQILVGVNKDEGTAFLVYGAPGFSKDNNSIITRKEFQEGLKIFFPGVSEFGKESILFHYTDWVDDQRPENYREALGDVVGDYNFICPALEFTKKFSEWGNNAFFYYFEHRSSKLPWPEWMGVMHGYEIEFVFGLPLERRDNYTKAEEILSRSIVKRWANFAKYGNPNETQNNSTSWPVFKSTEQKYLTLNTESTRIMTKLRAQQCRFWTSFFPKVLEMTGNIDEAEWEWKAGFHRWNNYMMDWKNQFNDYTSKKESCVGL
Description: as §1

[3] = molecular target: human recombinant beta-secretase (hBACE1) (Homo sapiens (Human), UniProt P56817); test: FRET assay, inhibition of human recombinant beta-secretase; assay type: biochemical
Sequence of human recombinant beta-secretase (hBACE1) (P56817 46-501): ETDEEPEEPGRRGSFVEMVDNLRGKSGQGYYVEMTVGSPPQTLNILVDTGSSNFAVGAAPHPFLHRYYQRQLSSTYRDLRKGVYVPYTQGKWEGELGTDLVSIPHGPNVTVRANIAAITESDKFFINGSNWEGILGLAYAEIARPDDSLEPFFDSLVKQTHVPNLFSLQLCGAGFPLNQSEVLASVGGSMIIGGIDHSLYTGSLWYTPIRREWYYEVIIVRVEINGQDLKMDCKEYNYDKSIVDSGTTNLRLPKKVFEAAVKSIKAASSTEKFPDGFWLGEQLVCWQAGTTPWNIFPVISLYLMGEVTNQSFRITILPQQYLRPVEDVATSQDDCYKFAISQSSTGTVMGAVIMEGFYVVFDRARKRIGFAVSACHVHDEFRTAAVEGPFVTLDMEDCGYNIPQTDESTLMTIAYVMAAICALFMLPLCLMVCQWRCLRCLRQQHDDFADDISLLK
Description: The FRET assay [Vassar, et al.] was used to test activity using 384-well black plates and a microplate reader (EnSpire Multimode; PerkinElmer; Waltham, MA, USA). The test was purchased from Life Technologies Polska Sp. z o.o. (Warsaw, Poland). […] Stock solutions of test compounds were prepared in DMSO and then further diluted with assay buffer (50 mM sodium acetate; pH 4.5) to the appropriate concentrations in the wells. In the first step of the test, 10 μl of the substrate (Rh-[…] quencher, based on the so-called Swedish APP mutation) was mixed with 10 μl of the test compound (or assay buffer; for blank sample). The enzyme reaction was initiated by adding 10 μl of enzyme (hBACE1, 1 U/ml). The reaction mixture was incubated at 25° C. for 60 minutes, then 10 μL of Stop solution (2.5 M sodium acetate) was added. After stopping the reaction, fluorescence was measured at 576 nm. The percentage of enzyme inhibition was calculated from the formula [1−(S60−S0)/(C60−C0)]×100, where S0 and S60 are the fluorescence of the test sample (containing the enzyme, substrate and test compound) at the start of the reaction and after 60 minutes, respectively, whereas C0 and C60 were analogous fluorescence intensities in the blank samples (containing enzyme, substrate and buffer). All test compounds were tested at a concentration of 50 μM in triplicate. […] A BACE1 IV inhibitor (Calbiochem, Merck; Nottingham, UK) [Stachel et al.] was used as a reference compound. […] IC50 values for all test compounds were calculated using non-linear regression (GraphPad Prism 5 [GraphPad Software, San Diego, CA, USA 5.00]) for the percentage of enzyme inhibition against the inhibitor concentration used.

[4] = molecular target: Recombinant human Aβ1-42 peptide (Homo sapiens (Human), UniProt P05067); test: Thioflavin T test, antiaggregation activity against beta-amyloid; assay type: biochemical; conditions: 10 μM test compound, 1.5 μM Aβ1-42; read-out: inh. Aβ aggr. % inh
Sequence of Recombinant human Aβ1-42 peptide (P05067 672-713): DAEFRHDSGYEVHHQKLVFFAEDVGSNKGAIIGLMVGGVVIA
Description: The thioflavin T test [Levine III] was used for the determinations. Recombinant human Aβ1-42 peptide (HFIP pretreated, Merck Millipore, Darmstadt, Germany) was dissolved in DMSO to form a 75 μM stock solution. The solution was further diluted in HEPES buffer (150 mM HEPES, pH 7.4, 150 mM NaCl) to a concentration of 7.5 μM. Then, the Aβ1-42 solution was added to the test compounds (black 96-well plates were used) and diluted with thioflavin T solution (10 μM final concentration). The final mixture contained 1.5 μM Aβ1-42, 10 μM test compound, and 3% of DMSO. Fluorescence was measured every 300 s (excitation wavelength was 440 nm, emission wavelength was 490 nm) with continuous mixing between measurements. A multifunction microplate reader (Synergy H4; BioTek Instruments, Inc., Winooski, VT, USA) was used to measure the fluorescence. Fluorescence started increasing after approximately 4 hours, plateaued after 20 hours and remained virtually unchanged for the next 28 hours of incubation. The plateau-phase fluorescence intensities (in the presence and absence of test compounds) were averaged and the mean fluorescence values for the respective wells at t=0 h were subtracted from them. […] IC50 values were calculated using non-linear regression (GraphPad Prism 5 [GraphPad Software, San Diego, CA, USA 5.00]) for the percentage of aggregation inhibition against the inhibitor concentration used.

[5] = molecular target: mGAT1 (Mus musculus (Mouse), UniProt P31648); test: [3H]GABA uptake inhibition, mGAT1 in HEK293 cells; assay type: cell-based; conditions: GABA reuptake
Description: (§2) Exemplary compounds according to the invention were screened at the Ludwig-Maximilian University of Munich to determine the inhibitory ability towards four mouse GAT transporters (mGAT1-mGAT4). […] The biological material was stably transfected human embryonic kidney HEK293 cells, expressing genes to the appropriate transporters. The generated radioactivity was measured with a liquid scintillation counter. […] These determinations were made according to the procedure described in detail in A. Kragler, G. Höfner, K. T. Wanner, Novel parent structures for inhibitors of the murine GABA transporters mGAT3 and mGAT4, Eur. J. Pharmacol. 519 (2005) 43-47.

[6] = molecular target: mGAT2 (Mus musculus (Mouse), UniProt P31651); test: [3H]GABA uptake inhibition, mGAT2 in HEK293 cells; assay type: cell-based; conditions: inhibitor at 100 μM; remaining reuptake
Sequence of mGAT2 (P31651 whole entry): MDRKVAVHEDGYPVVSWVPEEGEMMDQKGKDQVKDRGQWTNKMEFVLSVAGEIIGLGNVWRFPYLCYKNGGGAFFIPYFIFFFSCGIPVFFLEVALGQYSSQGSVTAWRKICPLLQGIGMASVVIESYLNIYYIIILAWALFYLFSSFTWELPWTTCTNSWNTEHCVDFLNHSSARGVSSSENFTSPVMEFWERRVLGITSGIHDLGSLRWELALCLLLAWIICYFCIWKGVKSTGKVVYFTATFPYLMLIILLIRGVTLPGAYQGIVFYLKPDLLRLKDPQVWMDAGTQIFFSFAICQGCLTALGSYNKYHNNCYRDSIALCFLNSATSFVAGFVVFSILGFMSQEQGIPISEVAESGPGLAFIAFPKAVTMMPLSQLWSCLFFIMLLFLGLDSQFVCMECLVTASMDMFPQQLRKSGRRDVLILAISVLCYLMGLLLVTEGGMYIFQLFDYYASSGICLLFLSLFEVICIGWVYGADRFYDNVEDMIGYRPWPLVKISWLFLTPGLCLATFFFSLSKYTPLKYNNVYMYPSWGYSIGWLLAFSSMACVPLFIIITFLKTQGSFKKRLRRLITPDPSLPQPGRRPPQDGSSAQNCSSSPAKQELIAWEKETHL
Description: as §2

[7] = molecular target: mGAT3 (Mus musculus (Mouse), UniProt P31649); test: [3H]GABA uptake inhibition, mGAT3 in HEK293 cells; assay type: cell-based; conditions: GABA reuptake
Sequence of mGAT3 (P31649 whole entry): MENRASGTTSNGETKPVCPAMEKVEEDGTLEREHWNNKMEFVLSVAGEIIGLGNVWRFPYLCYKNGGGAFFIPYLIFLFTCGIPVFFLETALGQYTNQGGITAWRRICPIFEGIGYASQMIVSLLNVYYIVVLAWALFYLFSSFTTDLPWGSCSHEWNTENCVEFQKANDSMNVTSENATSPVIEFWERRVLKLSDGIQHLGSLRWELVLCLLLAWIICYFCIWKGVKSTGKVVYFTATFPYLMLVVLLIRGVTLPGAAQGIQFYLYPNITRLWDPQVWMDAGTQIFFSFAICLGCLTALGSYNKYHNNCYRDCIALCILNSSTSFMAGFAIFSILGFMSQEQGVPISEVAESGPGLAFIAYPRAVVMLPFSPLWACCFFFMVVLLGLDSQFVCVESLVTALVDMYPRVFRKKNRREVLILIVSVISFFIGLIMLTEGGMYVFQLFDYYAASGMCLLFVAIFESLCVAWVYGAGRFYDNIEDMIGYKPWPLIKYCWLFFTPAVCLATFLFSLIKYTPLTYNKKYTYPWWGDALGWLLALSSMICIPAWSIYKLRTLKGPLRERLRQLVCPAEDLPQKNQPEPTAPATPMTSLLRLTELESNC
Description: as §2

[8] = molecular target: mGAT4 (Mus musculus (Mouse), UniProt P31650); test: [3H]GABA uptake inhibition, mGAT4 in HEK293 cells; assay type: cell-based; conditions: GABA reuptake; read-out: pIC50 (+/−SEM) mGAT4 (converted)
Sequence of mGAT4 (P31650 whole entry): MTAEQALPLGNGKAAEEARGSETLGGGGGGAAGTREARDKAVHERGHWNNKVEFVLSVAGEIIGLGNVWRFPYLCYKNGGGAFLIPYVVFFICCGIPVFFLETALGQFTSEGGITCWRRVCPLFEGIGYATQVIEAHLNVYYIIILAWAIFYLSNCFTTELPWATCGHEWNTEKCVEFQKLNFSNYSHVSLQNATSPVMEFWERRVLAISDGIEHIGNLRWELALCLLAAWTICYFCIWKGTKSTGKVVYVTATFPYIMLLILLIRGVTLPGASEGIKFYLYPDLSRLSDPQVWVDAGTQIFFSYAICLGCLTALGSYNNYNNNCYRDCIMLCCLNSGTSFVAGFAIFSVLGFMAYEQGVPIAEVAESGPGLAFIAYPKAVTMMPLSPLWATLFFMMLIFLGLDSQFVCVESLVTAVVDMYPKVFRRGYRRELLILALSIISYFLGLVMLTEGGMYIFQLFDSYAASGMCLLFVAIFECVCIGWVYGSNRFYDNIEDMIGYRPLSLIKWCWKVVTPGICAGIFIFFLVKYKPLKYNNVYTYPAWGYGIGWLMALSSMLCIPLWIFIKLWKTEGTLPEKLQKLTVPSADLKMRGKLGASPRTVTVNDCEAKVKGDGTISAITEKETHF
Description: as §2

Sequence of horse plasma butyrylcholinesterase (eqBuChE) (P81908 whole entry): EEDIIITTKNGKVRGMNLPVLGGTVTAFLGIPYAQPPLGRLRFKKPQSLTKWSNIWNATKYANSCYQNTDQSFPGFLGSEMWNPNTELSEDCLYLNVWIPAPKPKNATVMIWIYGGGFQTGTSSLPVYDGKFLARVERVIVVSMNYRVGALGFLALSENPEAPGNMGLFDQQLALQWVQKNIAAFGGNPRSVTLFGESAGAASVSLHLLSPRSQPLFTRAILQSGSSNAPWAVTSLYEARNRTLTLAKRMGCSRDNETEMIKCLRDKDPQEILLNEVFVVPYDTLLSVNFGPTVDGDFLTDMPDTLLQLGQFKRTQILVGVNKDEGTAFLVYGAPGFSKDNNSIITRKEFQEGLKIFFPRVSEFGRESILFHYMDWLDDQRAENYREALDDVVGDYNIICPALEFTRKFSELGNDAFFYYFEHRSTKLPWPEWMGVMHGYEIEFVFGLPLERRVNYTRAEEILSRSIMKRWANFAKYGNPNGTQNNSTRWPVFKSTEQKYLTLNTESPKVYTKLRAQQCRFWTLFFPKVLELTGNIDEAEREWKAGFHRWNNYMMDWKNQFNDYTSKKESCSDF

## CC(C)(C)CNC[C@@H](O)[C@H](Cc1ccccc1)NC(=O)CC1c2ccccc2-c2ccccc21 [Compound 27, 2-(9H-fluoren-9-yl)-N-((2S,3R)-3-hydroxy-4-(neopentylamino)-1-phenylbutan-2-yl)acetamide]
[1]
  IC50: 383 nM
[2]
  IC50: 207 nM
[3]; 50 μM inhibitor concentration, read-out: hBACE-1 % inh
  inhibition at 50 µM: 52.4%
[4]
  inhibition at 10 µM: 53.5%
[5]
  pIC50 (+/−SEM) mGAT1: 4.32
[6]
  percentage of [3H]GABA reuptake retained, mGAT2: 52%
[7]
  pIC50 (+/−SEM) mGAT3: 4.52
[8]
  IC50: 13800 nM

## O=C(CC1c2ccccc2-c2ccccc21)N[C@@H](Cc1ccccc1)[C@H](O)CNCC1CC1 [Compound 28, N-((2S,3R)-4-((cyclopropylmethyl)amino)-3-hydroxy-1-phenylbutan-2-yl)-2-(9H-fluoren-9-yl)acetamide]
[1]
  IC50: 1190 nM
[2]
  IC50: 246 nM
[3]; read-out: hBACE-1 IC50
  IC50: 12300 nM
[4]
  inhibition at 10 µM: 73.4%
[5]
  pIC50 (+/−SEM) mGAT1: 4.87
[6]
  percentage of [3H]GABA reuptake retained, mGAT2: 10%
[7]
  pIC50 (+/−SEM) mGAT3: 5.09
[8]
  IC50: 12600 nM
